Patent publication US5281608A, “Substituted tetrahydropyrido[3',4':4,5]-pyrrolo[3,2-c]quinolines” (American Home Products Corporation, priority 1992, dated 1994)
Converted amounts (≈) assume the structure as drawn.

Experiments:
[1] = tested on: rabbit articular chondrocytes (IL-1-induced neutral protease release); assay: Inhibition of IL-1-induced release of neutral protease from rabbit articular chondrocytes; assay type: cell-based, rabbit (Male New Zealand White); conditions: Oryctolagus cuniculus, Chondrocyte, human IL-1 stimulated, 24 h
Description: The ability of the compounds of the invention to inhibit interleukin 1 is measured by the ability of the test compounds to inhibit the IL-1-induced release of neutral protease from rabbit articular chondrocytes.
Male New Zealand White rabbits are anesthetized with 50 mg/kg of ketamine (i.m.) and killed by an intracardiac injection of 3 mls. of Nembutal. The knee joints of both legs are resected and the articular surfaces are exposed. Cartilage slices are obtained using a scalpel and are placed in a tissue culture dish (100 mm diameter) containing 10 mls of Hank's balanced salt solution (HBSS). The chondrocytes within the cartilage slices are then liberated by a series of enzyme digestions. The slices are incubated for 10 minutes at 37° C. in 0.05% hyaluronidase (Sigma H-3884), rinsed with HBSS and incubated with 0.2% trypsin (Sigma T-2395) for 10 minutes at 37° C. The slices are rinsed again and incubated for 10 minutes at 37° C. with 1.2% collagenase (Sigma C-5138). The slices are then rinsed again with HBSS and resuspended in 10 ml of Ham's F-12 medium containing 10% fetal bovine calf serum (FCS) and 0.2 % collagenase and incubated overnight at 37° C. in a 5% CO2 incubator. The next day, the medium containing the digested cartilage fragments and liberated chondrocytes is transferred to a 15 ml centrifuge tube and the cells are collected by centrifugation and washed twice and resuspended in Ham's F-12 medium. The cells are then plated into 24-well tissue culture plates (2×10^5 cells/well) and incubated at 37° C. until confluent (usually 4-6 days).
The confluent chondrocytes are rinsed twice with serum-free Ham's F-12 medium and 1 ml is added to each well. Fifty μl of purified human IL 1 (100 Units/ml; Genzyme Corporation, Boston, Mass.) is then added to stimulate these cells to secrete neutral protease. To measure drug effects, the cells are treated with test compound 10 minutes prior to addition of IL-1. The standard screening dose is 10 μM. Twenty-four hours after IL-1 stimulation, supernatant fluids are collected and assayed for neutral protease activity.
The neutral protease activity of chondrocyte supernatant fluids is determined by their ability to degrade an insoluble protease substrate, azocoll (Sigma). Supernatants are treated for 10 minutes at room temperature with 350 μM p-aminophenylmurcuric acetate to activate the latent enzyme. Three hundred μl of supernatant is then mixed with 500μl of a 20 mg/ml suspension of azocoll and incubated at 37° C. for 18-24 hours with gentle rocking. The mixtures are centrifuged and the amount of substrate hydrolyzed is determined by measuring the absorbance of the supernatant at 520 nm.
Drug effects are calculated as the % change in enzyme activity (absorbance)by supernatants from drug-treated chondrocytes relative to enzyme activity of supernatants from vehicle-treated chondrocytes as follows: [formula]

[2] = tested on: rat limb bones (PTH-induced bone resorption); assay: Bone resorption assay (45Ca release from rat limb bones), PTH-induced; assay type: cell-based, rat (Sprague-Dawley CD); conditions: 48 h; for IC50: Rattus norvegicus, read-out: Inhibition of Bone Resorption, PTH-Induced (IC50)
Description: (§1) The ability of the compounds of the invention to modify the process of bone resorption is evaluated in the bone resorption assay measuring ^45 Ca release from rat limb bones.
(§2) Limb bone preparation. Timed pregnant Sprague-Dawley CD® rats (Charles River) are administered 100 μCi ^45 CaCl2 (NEN calcium -45 NEZ-013) in 100 μl of 0.9% saline, subcutaneously, on day 18 of gestation. The rats are sacrificed the following day by CO2 asphyxiation. The fetuses are removed and the right forelimbs excised and placed in a Petri dish containing ice cold explant medium consisting of modified BGJb -Fitton Jackson media (custom formulation, Gibco No. 78-0088) adjusted to pH 7.3 to which 10 mM TES is added. The modified BGJb media is obtained without salts, glucose or bicarbonate and is supplemented before use with 0.1 mM MgCl2, 1.25 mM CaCl2, 5.3 mM KCl, 0.7 mM MgSO4, 130 mM NaCl, 1.0 mM NaH2 PO4, 1 g/L glucose, 50 mg/L Na acetate and 100 U/ml penicillin G. The medium is sterilized by passage through a 0.2 μ M filter (Nalge). Under a dissecting microscope, the bones are gently cleaned of adherent tissue and the cartilaginous ends removed. Incubation and drug treatment. The midshafts are placed, individually, on 3×3 mm squares of filter paper (Gelman GN-6 metricel filters; […] pore size) which rest on stainless steel screens in wells of 24-well culture plates containing 0.5 mL of preincubation medium. The preincubation medium is brought to 37° C. prior to transfer of bones. The preincubation medium consists of the modified BGJb medium (with salts and glucose as above), pH 7.3, containing 29 mM NaHCO3. After incubation for 18-24 hours at 37° C. in 5% CO2, the bones are transferred on their screen/filter paper supports to new plates containing, in a total volume of 0.5 mL/well at 37° C., the test compound diluted in preincubation medium supplemented with 15% heat inactivated horse serum (Gibco No. 230-6050), pH 7.3, with a bone resorption stimulating agent (e.g. parathyroid hormone [PTH] or interleukin-1 [IL-1]). For compounds that require nonaqueous solvents, dilutions are made from the appropriate stock solution with medium. In these instances, basal and bone resorption stimulated controls exposed to an equivalent concentration of the vehicle are included. An additional group of bones that have been subjected to boiling for 1 hour (kill control) are used to establish background, non cell mediated, exchange of ^45 Ca. The right ulna and radius from each fetus are used. Both bones are subjected to the same treatment and each treatment group consists of bones from 4 or more fetuses. Treatments are randomly assigned using a preclinical statistics program (PS-ALLOC). After a 48 hour incubation at 37° C. in 5% CO2, the bones are removed from the medium and extracted in 0.5 mL of 0.1N HCl for 1 or more days. Duplicate 150 μL aliquots of the incubation medium and the bone extract are analyzed for ^45 Ca radioactivity in 5 mL of liquid scintillation cocktail.
(§3) The percentage of bone ^45 Ca released into the medium is determined as follows: [formula] Results are normally expressed as the ratio of the percent ^45 Ca release of the experimental group versus the appropriate vehicle control, or as an IC50 value.

[3] = tested on: rat limb bones (IL-1 induced bone resorption); assay: Bone resorption assay (45Ca release from rat limb bones), IL-1 induced; assay type: cell-based, rat (Sprague-Dawley CD); conditions: 48 h; for IC50: Rattus norvegicus, read-out: Inhibition of Bone Resorption, IL-1 Induced (IC50)
Description: as §1, §2, §3

SMILES | IC50 [2] [µg/mL] | IC50 [3] [µg/mL] | inhibition at 10 µM [1] [%] | Inhibition of Bone Resorption, PTH-Induced (activity in words) [2] | Inhibition of Bone Resorption, IL-1 Induced (activity in words) [3] | inhibition at 0.1 µM ([1]; dose 0.1 μM) [%] | inhibition at 1 µM ([1]; dose 1 μM) [%] | IC50 [1] [µM]
N#Cc1ccc(C(=O)N2CCc3[nH]c4c(cnc5cc(Cl)ccc54)c3C2)cc1 [Example 5, 3-Chloro-8-(4-cyanobenzoyl)-8,9,10,11-tetrahydro-7H-pyrido[3',4':4,5]pyrrolo[3,2-c]quinoline] |  |  | 28 |  |  |  |  | 
O=C(c1ccco1)N1CCc2[nH]c3c(cnc4cc(Cl)ccc43)c2C1 [Example 9, 3-Chloro-8-(2-furanylcarbonyl)-8,9,10,11-tetrahydro-7H-pyrido[3',4':4,5]pyrrolo[3,2-c]quinoline] | 2.88 (≈ 8.19 µM) | 0.307 (≈ 0.873 µM) | 36 | Active | Active |  |  | 
O=C(Nc1ccccc1)N1CCc2[nH]c3c(cnc4cc(Cl)ccc43)c2C1 [Example 7, 3-Chloro-7,9,10,11-tetrahydro-N-phenyl-8H-pyrido-[3',4':4,5]pyrrolo[3,2-c]quinoline-8-carboxamide] |  |  | 21 |  |  |  |  | 
COc1cccc(NC(=O)N2CCc3[nH]c4c(cnc5cc(Cl)ccc54)c3C2)c1 [Example 20, 3-Chloro-7,9,10,11-tetrahydro-N-(3-methoxyphenyl)-8H-pyrido-[3',4':4,5]pyrrolo[3,2-c]quinoline-8-carboxamide] | 0.059 (≈ 0.145 µM) | 0.0088 (≈ 0.0216 µM) |  | Active | Active |  |  | 
O=C(c1cccs1)N1CCc2[nH]c3c(cnc4cc(Cl)ccc43)c2C1 [Example 4, 3-Chloro-8,9,10,11-tetrahydro-8-(2-thienylcarbonyl)-7H-pyrido[3',4':4,5]pyrrolo[3,2-c]quinoline] |  |  | 64 |  | Active at <5 μg/ml | 14 | 20 | 7.3
O=C(NC(=S)N1CCc2[nH]c3c(cnc4cc(Cl)ccc43)c2C1)c1ccccc1 [Example 17] | 1.16 (≈ 2.76 µM) | 1.65 (≈ 3.92 µM) |  | Active | Active |  |  | 
N#Cc1ccc(N2CCc3[nH]c4c(cnc5cc(Cl)ccc54)c3C2)cc1 [Example 3, 4-(3-Chloro-8,9,10,11-tetrahydro-7H-pyrido[3',4':4,5]-pyrrolo[3,2-c]quinolin-8-yl)benzonitrile] |  |  | 22 |  |  |  |  | 
COc1ccc(S(=O)(=O)N2CCc3[nH]c4c(cnc5cc(Cl)ccc54)c3C2)cc1 [Example 21, 3-Chloro-8,9,10,11-tetrahydro-8-[(4-methoxyphenyl)sulfonyl]-7H-pyrido[3',4':4,5]pyrrolo[3,2-c]quinoline] |  | 8.48 (≈ 19.8 µM) |  |  | Active |  |  | 
O=C(NCc1ccccc1)N1CCc2[nH]c3c(cnc4cc(Cl)ccc43)c2C1 [Example 16, 3-Chloro-7,9,10,11-tetrahydro-N-(phenylmethyl)-8H-pyrido-[3',4':4,5]pyrrolo[3,2-c]quinoline-8-carboxamide] | 2.52 (≈ 6.45 µM) | 6.22 (≈ 15.9 µM) |  | Active | Active |  |  | 

Second part, led by results:

IC50 [2] [µg/mL] | IC50 [3] [µg/mL] | SMILES | inhibition at 10 µM [1] [%] | Inhibition of Bone Resorption, PTH-Induced (activity in words) [2] | Inhibition of Bone Resorption, IL-1 Induced (activity in words) [3] | inhibition at 0.1 µM ([1]; dose 0.1 μM) [%] | inhibition at 1 µM ([1]; dose 1 μM) [%] | IC50 [1] [µM]
0.98 (≈ 2.41 µM) | 3.39 (≈ 8.35 µM) | CCOC(=O)c1ccc(N2CCc3[nH]c4c(cnc5cc(Cl)ccc54)c3C2)cc1 [Example 2, 4-(3-Chloro-8,9,10,11-tetrahydro-7H-pyrido[3',4':4,5]-pyrrolo[3,2-c]quinolin-8-yl)benzoic acid ethyl ester] | 38 | Active | Active |  |  | 
 | 0.067 (≈ 0.16 µM) | O=C(c1cc2ccccc2s1)N1CCc2[nH]c3c(cnc4cc(Cl)ccc43)c2C1 [Example 10, 8-(Benzo[b]thien-2-ylcarbonyl)-3-chloro-8,9,10,11-tetrahydro-7H-pyrido[3',4':4,5]pyrrolo[3,2-c]quinoline] | 24 |  | Active |  |  | 
5.5 (≈ 12.3 µM) |  | CCOC(=O)c1ccc(NC(=O)N2CCc3[nH]c4c(cnc5cc(Cl)ccc54)c3C2)cc1 [Example 15, 4-[[(3-Chloro-7,9,10,11-tetrahydro-8H-pyrido[3',4':4,5]pyrrolo-[3,2-c]quinoline-8-yl)carbonyl]amino]benzoic acid ethyl ester] |  | Active |  |  |  | 
0.944 (≈ 2.33 µM) | 1.71 (≈ 4.22 µM) | O=C(NC(=O)N1CCc2[nH]c3c(cnc4cc(Cl)ccc43)c2C1)c1ccccc1 [Example 13, N-Benzoyl-3-chloro-7,9,10,11-tetrahydro-8H-pyrido-[3',4':4,5]pyrrolo[3,2-c]quinoline-8-carboxamide] |  | Active | Active |  |  | 
 | 2.39 (≈ 5.87 µM) | S=C(NCc1ccccc1)N1CCc2[nH]c3c(cnc4cc(Cl)ccc43)c2C1 [Example 18, 3-Chloro-7,9,10,11-tetrahydro-N-(phenylmethyl)-8H-pyrido-[3',4':4,5]pyrrolo[3,2-c]quinoline-8-carbothioamide] |  |  | Active |  |  | 
1.2 (≈ 3.05 µM) | 1.21 (≈ 3.08 µM) | S=C(Nc1ccccc1)N1CCc2[nH]c3c(cnc4cc(Cl)ccc43)c2C1 [Example 14, 3-Chloro-7,9,10,11-tetrahydro-N-phenyl-8H-pyrido-[3',4':4,5]pyrrolo[3,2-c]quinoline-8-carbothioamide] |  | Active | Active |  |  | 
